Data on nine compounds can be found in PMC9772450, “Gel-forming antagonist provides a lasting effect on CGRP-induced vasodilation” (Frontiers in Pharmacology, 2022).

Like-named read-outs stand apart in the source and are kept apart here. Non-standard residues stand in square brackets, D forms with d. Residues, ends and D or L forms follow the SMILES beside them. *: point of attachment. 2Nal = N[C@@H](Cc1ccc2ccccc2c1)C(=O)O; Met(O2) = CS(=O)(=O)CC[C@H](N)C(=O)O; Arg(Me) = CNC(=N)NCCC[C@H](N)C(=O)O; Palmitoyl = CCCCCCCCCCCCCCCC(=O)*

A short description of data set [1]: Visual (tube-tapping) assay of gel-forming capability and solubility. The class given is physicochemical. Further details: key to Gel-forming ability: Y: can form a liquid gel; N: lacks the ability to efficiently form a liquid gel. The following applies: for Gel-forming ability: visual inspection of 11% peptide solutions, tube-tapping, 20 min after mixing. How it is done: To evaluate the ability of peptides to form gels in situ, we initially determined this tendency qualitatively based on visual examinations of peptide solutions using a tube-tapping method. In addition, we quantitatively determined the viscosity of select peptide solutions using a viscometer (Rheosense Inc; http://www.rheosense.com/products/viscometers) ([Yan and Pochan, 2010]). In the visual assay, aliquots of peptides were dissolved in an aqueous solution (i.e., de-ionized water, saline, or 5% glucose solution). The peptide that dissolved instantly and stayed as a clear solution without obvious macroscopic change in viscosity at 20 min after mixing was considered soluble. If macroscopic particles of peptides remained in the solution at 20 min after mixing, the peptide was considered insoluble.

Data set [2] has as its target T1, CLR/RAMP1 receptor (Homo sapiens, UniProt O60894+Q16602).
T1 construct: host or cells: CHO-K1 (cAMP Hunter cell line)
Put plainly: HitHunter cAMP XS+ CALCRL-RAMP1 cAMP assay, antagonist mode. Particulars: for IC50: CHO-K1 CALCRL-RAMP1 cAMP Hunter cells, human β-CGRP at EC80 (0.37nM), 30 min pre-incubation, 10-point curve from 10 μM, 3-fold dilutions, duplicate samples, assayed side-by-side once, read-out: IC50 for antagonizing CGRP-induced CLR/RAMP1 signaling; for Maximum response: antagonist mode, β-CGRP at EC80, 10-point curve, duplicate; for Antagonistic activity toward CGRP-mediated CLR/RAMP1 signaling compared to ADE651: result in words. The data set is classed as cell-based. How it is done:
The assay of the antagonistic activity of analogs was conducted by the Eurofins Discoverx using the HitHunter cAMP XS + assay as described earlier ([Bradley and McLoughlin, 2009]; [Chang and Hsu, 2019]). The dose-dependent inhibitory effect of antagonists was studied in duplicate, at 10 different concentrations. Determination of the half-maximal inhibitory concentration (IC50) was performed using a 10-point dose-response curve. The starting concentration was 10 μM, and it was serially diluted 3-fold, in DMSO. […] Using the Hit Hunter® assay (CALCRL-RAMP1 cAMP assay in the antagonist mode; https://www.discoverx.com/products/cell-line/cho-k1-calcrl-ramp1-gs-cell-line-95-0164c2), the eight compounds in Table 1 were assayed side-by-side once, and the IC50 was derived based on the standard assay of duplicate samples of a ten-point curve. In this homogenous, non-imaging assay, the activation of CLR/RAMP1 signaling was evaluated using the Enzyme Fragment Complementation (EFC) technology with β-galactosidase (β-Gal) as the functional reporter. The enzyme was split into two complementary portions: an enzyme acceptor and an enzyme donor. The enzyme donor is fused to cAMP and it competes with cAMP generated by cells
For binding to a cAMP-specific antibody. Active β-Gal is formed by complementation of exogenous enzyme acceptor to any unbound enzyme donor-cAMP. The active enzyme then converted a chemiluminescent substrate to generate a signal. Briefly, cAMP Hunter cell lines with the select receptor were expanded from freezer stocks ([Bradley and McLoughlin, 2009]), and cells were seeded in a total volume of 20 μL into 384-well microplates and incubated at 37°C for the appropriate time. […] Intermediate dilution of samples was performed to generate 4X sample in the assay buffer. Before the assay, media was aspirated from cells and replaced with 10 μL 1:1 HBSS/Hepes:cAMP XS + Ab reagent, and 5 μL of 4X compound was added to the cells and incubated for 30 min. […] Vehicle concentration was 1%.
The chemiluminescent signal was read with a PerkinElmer chemiluminescent plate reader. The compound activity was analyzed using a CBIS data analysis suite (ChemInnovation, CA). The percentage inhibition was calculated using the following formula: % Inhibition = 100% x (1 - (mean RLU of test sample - mean RLU of vehicle control)/(mean RLU of EC80 control - mean RLU of vehicle control)). Data were normalized to the maximal and minimal response observed in the presence of EC80 agonist and vehicle.

Data set [3] can be described thus: Passage of peptide molecules through Centricon filters. The class given is physicochemical. Particulars: Centricon 30,000 MW cutoff, 15 min centrifugation; specific EIA; N = 3 per group; result in words. The text has this:
To evaluate whether gel-formation reduces the movement of peptide molecules in solution, we used the Centricon® filters (Millipore) to separate samples and the carriers based on their molecular mass. The sample is monomeric peptides, and the carrier is the self-assembled gel. One milligram aliquots of the peptides were first dissolved as 0.1% solution in 5% glucose, 0.1% solution in saline, 5% solution in 5% glucose, 10% solution in 5% glucose, and 20% solution in 5% glucose. Ten minutes later, the 5%, 10%, and 20% solutions were diluted to the 0.1% level. Aliquots of these solutions were sampled and dispensed into separate Centricon columns (30,000 MW cutoff), and the monomeric peptide and gel molecules were separated by centrifugation for 15 min (2000 x g). The level of peptide in the elutes was determined by specific EIAs (Phoenix Pharmaceuticals Inc.).

For data set [4] the following is noted: cited from earlier work.

T1 sequence (Q16602 23-461): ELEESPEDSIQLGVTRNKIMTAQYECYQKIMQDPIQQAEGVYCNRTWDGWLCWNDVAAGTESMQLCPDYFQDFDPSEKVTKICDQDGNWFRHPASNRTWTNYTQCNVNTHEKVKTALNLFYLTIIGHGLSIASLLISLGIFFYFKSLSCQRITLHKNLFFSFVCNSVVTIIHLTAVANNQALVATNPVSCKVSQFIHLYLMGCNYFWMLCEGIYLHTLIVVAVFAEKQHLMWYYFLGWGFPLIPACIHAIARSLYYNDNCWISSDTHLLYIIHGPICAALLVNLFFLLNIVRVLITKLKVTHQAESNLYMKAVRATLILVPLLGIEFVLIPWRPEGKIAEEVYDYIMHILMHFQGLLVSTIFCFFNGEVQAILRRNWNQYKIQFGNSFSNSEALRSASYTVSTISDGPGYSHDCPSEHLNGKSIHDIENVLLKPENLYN
T1 sequence (O60894 27-148): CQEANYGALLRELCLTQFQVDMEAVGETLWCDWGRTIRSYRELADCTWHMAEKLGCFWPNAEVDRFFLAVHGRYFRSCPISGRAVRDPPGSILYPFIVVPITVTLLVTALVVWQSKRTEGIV

With `CCCCCCCCCCCCCCCC(=O)N[C@@H](CCCCN)C(=O)N[C@H](C(=O)N[C@@H](CCC(N)=O)C(=O)N[C@@H](CCCCN)C(=O)N[C@@H](Cc1ccc2ccccc2c1)C(=O)N[C@@H](CO)C(=O)N[C@@H](C)C(=O)N1CCC[C@H]1C(=O)N[C@H](C(=O)N[C@@H](CC(=O)O)C(=O)N1CCC[C@H]1C(=O)N[C@@H](CO)C(=O)N[C@@H](CO)C(=O)N1CCC[C@H]1C(=O)N[C@@H](Cc1c[nH]cn1)C(=O)N[C@@H](CO)C(=O)N[C@@H](Cc1ccc(O)cc1)C(N)=O)C(C)C)C(C)C` [ADE651H] (Palmitoyl-KVQK[2Nal]SAPVDPSSPHSY-NH2), the Gel-forming ability entry in data set [1] is “Y”. For the same compound, in data set [2], the IC50 is 15.1 nM, the Maximum response was 100.1 % of positive control and the “Antagonistic activity toward CGRP-mediated CLR/RAMP1 signaling compared to ADE651” value is on record as “significantly reduced antagonistic activity”.

As to `CCCCCCCCCCCCCCCC(=O)N[C@@H](CCCCN)C(=O)N[C@H](C(=O)N[C@@H](CCC(N)=O)C(=O)N[C@@H](CCCCN)C(=O)N[C@@H](CCS(C)(=O)=O)C(=O)N[C@@H](CO)C(=O)N[C@@H](C)C(=O)N1CCC[C@H]1C(=O)N[C@H](C(=O)N[C@@H](CC(=O)O)C(=O)N1CCC[C@H]1C(=O)N[C@@H](CO)C(=O)N[C@@H](CO)C(=O)N1CCC[C@H]1C(=O)N[C@@H](Cc1c[nH]cn1)C(=O)N[C@@H](CO)C(=O)N[C@@H](Cc1ccc(O)cc1)C(N)=O)C(C)C)C(C)C` [ADE651J] (Palmitoyl-KVQK[Met(O2)]SAPVDPSSPHSY-NH2), the Gel-forming ability result in data set [1] is recorded as “Y”. In data set [2], the IC50 was 0.9 nM, the Maximum response is 100.4 % of positive control and the “Antagonistic activity toward CGRP-mediated CLR/RAMP1 signaling compared to ADE651” value was “retained the potent antagonistic activity”.

In the case of `CCCCCCCCCCCCCCCC(=O)N[C@@H](CCCCN)C(=O)N[C@H](C(=O)N[C@@H](CCC(N)=O)C(=O)N[C@@H](CCCNC(=N)NC)C(=O)N[C@@H](CC(C)C)C(=O)N[C@@H](CO)C(=O)N[C@@H](C)C(=O)N1CCC[C@H]1C(=O)N[C@H](C(=O)N[C@@H](CC(=O)O)C(=O)N1CCC[C@H]1C(=O)N[C@@H](CO)C(=O)N[C@@H](CO)C(=O)N1CCC[C@H]1C(=O)N[C@@H](Cc1c[nH]cn1)C(=O)N[C@@H](CO)C(=O)N[C@@H](Cc1ccc(O)cc1)C(N)=O)C(C)C)C(C)C` [ADE651M] (Palmitoyl-KVQ[Arg(Me)]LSAPVDPSSPHSY-NH2), the Gel-forming ability entry in data set [1] was “Y”. Moreover, the “Antagonistic activity toward CGRP-mediated CLR/RAMP1 signaling compared to ADE651” value in data set [2] is given as “retained the potent antagonistic activity”.

As for “Pal-KVQ-Lys (Pyr)-LSAPVDPSSPHSY-NH2 [ADE651N, ADE651 variant, second lysine substituted with Lys (Pyr)]”, in data set [1], the Gel-forming ability result is reported as “Y”. In data set [2], the Maximum response is 99.9 % of positive control and the “Antagonistic activity toward CGRP-mediated CLR/RAMP1 signaling compared to ADE651” value is given as “retained the potent antagonistic activity”.

As for “VGCRFGTCTVQKLAHLWQLMGPAGRQDSAPVDPSSPHSY-NH2 [ADE410]”, the “Solubility in 5% glucose solution” value in data set [1] (visual) is listed as “soluble from 0.1% to 20%”. Further, the “Liquid gel formation at 6–20% level” value in data set [1] (visual, result in words) was “does not form a liquid gel”. The “Peptide level in elutes from 0.1, 5, 10 and 20% solution groups” value in data set [3] was “similar”.

Turning to “abaloparatide: approved peptide therapeutic”, the Volume of distribution in data set [4] (in vivo) was 50.0 L.

exenatide: approved peptide therapeutic: in data set [4] (in vivo), the Volume of distribution is recorded as 28.3 L.

histrelin: the Volume of distribution in data set [4] (in vivo) is on record as 58.4 L.

Turning to setmelanotide, in data set [4] (approved peptide therapeutics), the Volume of distribution is listed as 48.7 L.
